Read-outs that look alike come from different tables or passages of the source.

In assay [1] the target is T1, Rabbit skeletal muscle glycogen phosphorylase b (rmGPb) (Oryctolagus cuniculus, UniProt P00489).
T1 construct: gene PYGM
T1 sequence (P00489 2-843): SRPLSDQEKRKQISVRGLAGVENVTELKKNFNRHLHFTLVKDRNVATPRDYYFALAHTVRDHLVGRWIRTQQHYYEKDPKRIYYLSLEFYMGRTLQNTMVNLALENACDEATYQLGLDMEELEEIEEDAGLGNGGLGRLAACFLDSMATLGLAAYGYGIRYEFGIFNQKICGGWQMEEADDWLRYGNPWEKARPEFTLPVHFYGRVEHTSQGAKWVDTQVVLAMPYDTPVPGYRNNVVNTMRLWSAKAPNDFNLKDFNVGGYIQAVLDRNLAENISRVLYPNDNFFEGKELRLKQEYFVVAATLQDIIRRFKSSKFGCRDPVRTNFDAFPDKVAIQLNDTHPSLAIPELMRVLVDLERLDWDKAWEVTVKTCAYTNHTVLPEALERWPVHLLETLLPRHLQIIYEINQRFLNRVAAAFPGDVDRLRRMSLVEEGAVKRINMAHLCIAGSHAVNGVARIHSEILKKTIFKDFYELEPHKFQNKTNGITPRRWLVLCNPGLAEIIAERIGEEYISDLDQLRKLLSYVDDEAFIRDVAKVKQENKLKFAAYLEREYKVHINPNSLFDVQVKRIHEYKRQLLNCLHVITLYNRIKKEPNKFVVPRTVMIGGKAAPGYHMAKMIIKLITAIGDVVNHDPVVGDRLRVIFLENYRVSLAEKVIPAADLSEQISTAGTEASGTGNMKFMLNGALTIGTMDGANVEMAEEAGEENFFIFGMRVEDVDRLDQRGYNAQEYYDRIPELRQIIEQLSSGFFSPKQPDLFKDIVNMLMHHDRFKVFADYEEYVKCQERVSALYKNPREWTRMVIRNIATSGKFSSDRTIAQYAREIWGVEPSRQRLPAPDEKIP
The assay can be described thus: X-ray crystal structure ([…] Å) plus enzyme kinetics (noncompetitive Ki). Format: biochemical.

The target in assay [2] is T2, human liver glycogen phosphorylase a (hlGPa) (Homo sapiens, UniProt P06737).
T2 construct: gene PYGL
T2 sequence (P06737 2-847): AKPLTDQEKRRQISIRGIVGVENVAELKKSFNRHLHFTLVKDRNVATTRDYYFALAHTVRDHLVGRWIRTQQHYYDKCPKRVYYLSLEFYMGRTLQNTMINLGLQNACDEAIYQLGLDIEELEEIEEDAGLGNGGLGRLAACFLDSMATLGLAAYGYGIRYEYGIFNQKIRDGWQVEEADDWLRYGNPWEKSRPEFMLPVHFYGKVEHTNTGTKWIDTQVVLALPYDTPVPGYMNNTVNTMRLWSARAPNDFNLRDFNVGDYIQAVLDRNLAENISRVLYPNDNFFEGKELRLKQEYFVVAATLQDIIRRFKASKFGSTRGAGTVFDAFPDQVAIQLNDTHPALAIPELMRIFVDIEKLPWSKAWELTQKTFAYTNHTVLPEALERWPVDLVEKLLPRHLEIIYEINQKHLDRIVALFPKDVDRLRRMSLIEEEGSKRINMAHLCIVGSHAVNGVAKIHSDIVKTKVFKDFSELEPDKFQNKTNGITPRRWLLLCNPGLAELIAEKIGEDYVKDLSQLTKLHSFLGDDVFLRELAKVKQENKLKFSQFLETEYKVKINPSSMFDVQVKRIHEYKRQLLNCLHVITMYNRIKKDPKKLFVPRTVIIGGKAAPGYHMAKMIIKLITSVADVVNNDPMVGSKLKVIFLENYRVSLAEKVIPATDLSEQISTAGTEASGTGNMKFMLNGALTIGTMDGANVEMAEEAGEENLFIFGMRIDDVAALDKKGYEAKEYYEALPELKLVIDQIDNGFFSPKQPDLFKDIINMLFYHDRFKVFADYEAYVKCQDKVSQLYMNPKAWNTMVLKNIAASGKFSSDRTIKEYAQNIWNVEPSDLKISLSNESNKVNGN
The assay can be described thus: enzyme kinetics on purified hlGPa, Lineweaver–Burk. Format: biochemical.

Assay [3] addresses T1, Rabbit skeletal muscle glycogen phosphorylase b (rmGPb). The experiment in a line: X-ray crystal structure ([…] Å) plus enzyme kinetics (noncompetitive Ki). Format: biochemical. The source holds these as a separate data set.
The target of assay [4] is T2, human liver glycogen phosphorylase a (hlGPa). The experiment in a line: enzyme inhibition assay on purified hlGPa. It counts as biochemical.
Assay [5] concerns the target T1, Rabbit skeletal muscle glycogen phosphorylase b (rmGPb).
For assay [6] the target is unchanged. The assay can be described thus: X-ray crystal structure of ternary rmGPb-EGCG-glucose complex ([…] Å); multiple inhibition kinetics. It counts as binding.

As a reminder, the Ki is a measure of affinity in units of concentration, obtained from inhibition or displacement. As for `O=C(O[C@@H]1Cc2c(O)cc(O)cc2O[C@@H]1c1cc(O)c(O)c(O)c1)c1cc(O)c(O)c(O)c1` [EGCG], the Ki is 49.8 ± 1.6 µM in assay [1] and 17.6 ± 0.7 µM in assay [2].

As a reminder, the IC50 is the concentration that gives 50% inhibition. Read a low IC50 as greater potency. Regarding `Oc1cc(O)c2c(c1)O[C@H](c1cc(O)c(O)c(O)c1)[C@H](O)C2` [EGC], the Ki in assay [3] was 286 ± 14.1 µM. In assay [4], the IC50 came out at 194 ± 3.5 µM.

On to `Cn1c(=O)c2c(ncn2C)n(C)c1=O` [caffeine], for which the “X-ray crystal structure of ternary rmGPb-EGCG-caffeine complex (2.5 Å); multiple” value in assay [5] is “EGCG can bind at the QBS simultaneously with glucose at the catalytic site or caffeine at the inhibitor site”.

Take `OC[C@H]1OC(O)[C@H](O)[C@@H](O)[C@@H]1O` (stereo partly drawn) [glucose]: the “X-ray crystal structure of ternary rmGPb-EGCG-glucose complex (2.0 Å); multiple” value in assay [6] was “EGCG can bind at the QBS simultaneously with glucose at the catalytic site or caffeine at the inhibitor site”.

These data come from PMC11528470, “Evidence for the Quercetin Binding Site of Glycogen Phosphorylase as a Target for Liver-Isoform-Selective Inhibitors against Glioblastoma: Investigation of Flavanols Epigallocatechin Gallate and Epigallocatechin” (Journal of Agricultural and Food Chemistry, 2024).
